For one experiment, the target named is T1, soluble form of CD40L (Homo sapiens, UniProt P29965).
T1 sequence (P29965 113-261 limits assumed): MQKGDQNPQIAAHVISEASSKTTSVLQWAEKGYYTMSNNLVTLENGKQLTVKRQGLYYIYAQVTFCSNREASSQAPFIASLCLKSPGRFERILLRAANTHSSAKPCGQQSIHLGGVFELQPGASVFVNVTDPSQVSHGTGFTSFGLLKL
Kind of experiment: SPR on Biacore 4000 against immobilised CD40L. Conditions: read-out: geomean IC50 for binding against CD40L. The protocol:
(§1) In another experiment, BIO8898 was tested against the immobilised soluble form of CD40L and the soluble form of TNFα by SPR on a Biacore 4000 machine.

The target of the next experiment is T2, soluble form of TNFα (Homo sapiens, UniProt P01375).
T2 construct: immobilised soluble form of CD40L and the soluble form of TNFα by SPR
T2 sequence (P01375 77-233 limits assumed): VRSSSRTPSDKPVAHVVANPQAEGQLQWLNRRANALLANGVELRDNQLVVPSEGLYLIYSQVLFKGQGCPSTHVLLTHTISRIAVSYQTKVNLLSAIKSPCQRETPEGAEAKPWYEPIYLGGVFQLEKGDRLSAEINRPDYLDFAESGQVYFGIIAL
Kind of experiment: SPR on Biacore 4000 against immobilised TNFα. It counts as binding. Conditions: concentration of up to 100 μM. The protocol:
as §1

SMILES strings stand for the structures. Entries after “also recorded” stand apart in the source; their conditions may differ.

Broadly, the IC50 is the point on the concentration scale where inhibition reaches its midpoint. `O=C(NCc1cccc(-c2ccccc2)c1)c1cc(-c2cc(C(=O)NC(C(=O)O)C3CCCCC3)nc(C(=O)N3CCCC3CN3CCCC3)c2)cc(C(=O)N2CCCC2CN2CCCC2)n1` (centres unmarked) [BIO8898]: on soluble form of CD40L, the IC50 is 17 µM. Also, the “binding to TNFα” value at soluble form of TNFα is “found not to bind; also recorded: no binding was detected”.
